Assay results taken from PMC9095416 (Medicinal Chemistry Research, 2022).

Experiments:
[1] = biological target: T1, SARS-CoV-2 M^pro (Severe acute respiratory syndrome coronavirus 2, UniProt P0DTD1); assay: FRET-based enzymatic assay, SARS-CoV-2 M^pro; assay type: biochemical; conditions: FRET assay M^pro IC50, 4 mM DTT
[2] = biological target: SARS-CoV-2 PL^pro (Severe acute respiratory syndrome coronavirus 2, UniProt P0DTD1); assay: FRET-based enzymatic assay, SARS-CoV-2 PL^pro; assay type: biochemical
[3] = biological target: T1, SARS-CoV-2 M^pro; assay: cell-based

## Oc1cc(O)cc(Oc2c(O)cc(O)c3c2Oc2c(O)cc(Oc4c(O)cc(Oc5c(O)cc(O)c6c5Oc5c(O)cc(O)cc5O6)cc4O)cc2O3)c1 [Dieckol, dieckol]
[1]
  IC50: > 20 µM
[2]
  IC50: > 20 µM
[3]
  IC50: > 60 µM
